Laboratory results published in PMC4448990 (Pharmacology Research & Perspectives, 2015).
Values joined by “and” are separate entries in the source; they are usually repeats but may differ in a detail not shown here. Equal entries are not always repeated. Where two headings read alike, the source gives them in different places.

Experiments:
[1] = target: human α1β2γ2 GABAA receptors (Homo sapiens, UniProt P14867+P18507+P47870); test: submaximal GABA currents in Ltk cells; type: cell-based
[2] = target: human α3β2γ2 GABAA receptors (Homo sapiens, UniProt P18507+P34903+P47870); test: submaximal GABA currents in Ltk cells; type: cell-based
[3] = target: human GRIN1/GRIN2B NMDA receptor (Homo sapiens, UniProt Q05586+Q13224); test: submaximal NMDA-receptor-mediated currents in HEK cells; type: cell-based
[4] = target: T1, human GlyRα3 glycine receptors (Homo sapiens, UniProt O75311); test: submaximal glycine currents in CHO cells; type: cell-based
T1 sequence (O75311 34-464): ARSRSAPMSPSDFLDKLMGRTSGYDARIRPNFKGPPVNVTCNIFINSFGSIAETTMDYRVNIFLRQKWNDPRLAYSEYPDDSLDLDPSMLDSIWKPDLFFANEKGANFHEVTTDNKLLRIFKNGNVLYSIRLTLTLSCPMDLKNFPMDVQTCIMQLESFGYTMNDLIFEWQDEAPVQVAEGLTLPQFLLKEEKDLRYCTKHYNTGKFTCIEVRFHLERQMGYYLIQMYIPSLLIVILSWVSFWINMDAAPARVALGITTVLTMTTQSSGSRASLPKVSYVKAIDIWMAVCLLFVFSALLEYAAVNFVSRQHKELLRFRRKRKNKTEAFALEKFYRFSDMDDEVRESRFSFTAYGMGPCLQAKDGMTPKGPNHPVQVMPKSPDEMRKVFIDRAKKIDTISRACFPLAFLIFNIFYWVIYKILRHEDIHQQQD

[5] = target: Adenosine transporter (h) (Homo sapiens, UniProt Q99808); test: in vitro selectivity profile; type: binding
Dopamine, D2s (h) = Dopamine, D2s (h) (Homo sapiens, UniProt P14416); test: in vitro selectivity profile; type: binding
[6] = test system: Glutamate, chloride-dependent site; test: in vitro selectivity profile; type: binding; conditions: eslicarbazepine 400 μmol/L
Glutamate, mGluR1 = test: in vitro selectivity profile; type: binding; conditions: eslicarbazepine 400 μmol/L
Histamine, H3 = test: in vitro selectivity profile; type: binding; conditions: eslicarbazepine 400 μmol/L
Muscarinic, M1 (h) = Muscarinic, M1 (h) (Homo sapiens, UniProt P11229); test: in vitro selectivity profile; type: binding
Muscarinic, M5 (h) = Muscarinic, M5 (h) (Homo sapiens, UniProt P08912); test: in vitro selectivity profile; type: binding
Serotonin, 5HT1D (h) = Serotonin, 5HT1D (h) (Homo sapiens, UniProt P28221); test: in vitro selectivity profile; type: binding
Serotonin, 5HT4 = test: in vitro selectivity profile; type: binding; conditions: eslicarbazepine 400 μmol/L
Serotonin, 5HT5A (h) = Serotonin, 5HT5A (h) (Homo sapiens, UniProt P47898); test: in vitro selectivity profile; type: binding
[7] = test system: Potassium channel, ATP-sensitive; test: in vitro selectivity profile; type: binding; conditions: eslicarbazepine 400 μmol/L
[8] = test system: Decarboxylase, glutamic acid; test: in vitro selectivity profile; type: biochemical; conditions: eslicarbazepine 400 μmol/L
[9] = target: Protease, caspase, CASP-10 (h) (Homo sapiens, UniProt Q92851); test: in vitro selectivity profile; type: biochemical
[10] = target: Protease, caspase, CASP-2 (h) (Homo sapiens, UniProt P42575); test: in vitro selectivity profile; type: biochemical
[11] = test system: Transferase, choline acetyl; test: in vitro selectivity profile; type: biochemical; conditions: eslicarbazepine 400 μmol/L
Kinase, protein, Fyn (h) = Kinase, protein, Fyn (h) (Homo sapiens, UniProt P06241); test: in vitro selectivity profile; type: biochemical
[12] = target: Kinase, protein, GSK3b (h) (Homo sapiens, UniProt P49841); test: in vitro selectivity profile; type: biochemical
[13] = target: Kinase, protein, MAPK1 (ERK2, p42mapk) (h) (Homo sapiens, UniProt P28482); test: in vitro selectivity profile; type: biochemical
[14] = target: Kinase, protein, ROCK2 (h) (Homo sapiens, UniProt O75116); test: in vitro selectivity profile; type: biochemical
[15] = target: Kinase, protein, SGK1 (h) (Homo sapiens, UniProt O00141); test: in vitro selectivity profile; type: biochemical
[16] = cited from earlier work
P-glycoprotein = conditions: ref Fortuna et al. [2012]; cited from earlier work
[17] = test system: sodium channels endogenously expressed in N1E-115 mouse neuroblastoma cells; conditions: 250 μmol/L; ref Hebeisen et al. [2014]; cited from earlier work
[18] = Amygdala kindling, ESL 200 mg/kg i.p., 15 min, ref Soerensen et al. ([2011])
[19] = Amygdala kindling, ESL 300 mg/kg i.p., 15 min, ref Soerensen et al. ([2011])
[20] = Corneal kindling, ESL 100 mg/kg i.p., 60 min, ref Pekcec et al. ([2011])
[21] = MES test, ESL 50 mg/kg p.o., 60 min, ref Pires et al. ([2011])

Chain of human α3β2γ2 GABAA receptors (P34903 29-492): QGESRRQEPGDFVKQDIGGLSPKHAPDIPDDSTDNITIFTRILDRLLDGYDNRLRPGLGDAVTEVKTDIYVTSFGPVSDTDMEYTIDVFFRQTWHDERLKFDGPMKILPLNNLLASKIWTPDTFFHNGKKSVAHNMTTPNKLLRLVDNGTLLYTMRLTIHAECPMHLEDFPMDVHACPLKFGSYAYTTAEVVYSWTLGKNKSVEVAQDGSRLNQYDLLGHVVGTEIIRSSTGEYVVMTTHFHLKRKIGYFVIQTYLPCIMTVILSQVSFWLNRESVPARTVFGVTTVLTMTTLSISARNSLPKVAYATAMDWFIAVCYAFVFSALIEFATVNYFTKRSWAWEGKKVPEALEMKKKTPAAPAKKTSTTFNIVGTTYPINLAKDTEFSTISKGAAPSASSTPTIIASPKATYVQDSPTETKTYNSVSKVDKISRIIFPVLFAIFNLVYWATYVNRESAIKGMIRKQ
Chain of human α3β2γ2 GABAA receptors (P47870 25-512 limits assumed): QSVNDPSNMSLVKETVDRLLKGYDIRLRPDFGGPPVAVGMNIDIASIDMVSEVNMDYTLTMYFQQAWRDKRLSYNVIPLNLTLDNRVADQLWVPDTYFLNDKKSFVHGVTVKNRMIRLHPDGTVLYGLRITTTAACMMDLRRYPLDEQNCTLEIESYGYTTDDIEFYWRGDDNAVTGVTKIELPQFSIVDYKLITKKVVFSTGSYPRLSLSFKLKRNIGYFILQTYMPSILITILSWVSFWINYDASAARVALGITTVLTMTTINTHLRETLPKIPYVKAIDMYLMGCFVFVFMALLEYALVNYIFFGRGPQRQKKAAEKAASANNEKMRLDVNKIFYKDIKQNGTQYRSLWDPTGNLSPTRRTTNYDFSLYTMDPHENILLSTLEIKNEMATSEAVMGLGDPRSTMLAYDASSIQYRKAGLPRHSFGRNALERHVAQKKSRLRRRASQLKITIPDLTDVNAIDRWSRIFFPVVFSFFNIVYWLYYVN
Chain of human α3β2γ2 GABAA receptors (P18507 40-475): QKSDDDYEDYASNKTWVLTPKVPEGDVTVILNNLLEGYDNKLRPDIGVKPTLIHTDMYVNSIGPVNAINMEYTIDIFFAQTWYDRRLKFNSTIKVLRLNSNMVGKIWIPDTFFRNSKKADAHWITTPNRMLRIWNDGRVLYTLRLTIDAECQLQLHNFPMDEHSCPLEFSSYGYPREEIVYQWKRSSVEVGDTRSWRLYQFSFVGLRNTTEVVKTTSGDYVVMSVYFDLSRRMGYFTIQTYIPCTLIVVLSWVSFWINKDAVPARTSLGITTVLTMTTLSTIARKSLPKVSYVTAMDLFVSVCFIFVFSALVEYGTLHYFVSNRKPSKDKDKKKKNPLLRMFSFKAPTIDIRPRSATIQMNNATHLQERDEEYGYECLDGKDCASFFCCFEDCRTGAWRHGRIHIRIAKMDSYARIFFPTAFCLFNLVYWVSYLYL
Chain of human α1β2γ2 GABAA receptors (P14867 28-456): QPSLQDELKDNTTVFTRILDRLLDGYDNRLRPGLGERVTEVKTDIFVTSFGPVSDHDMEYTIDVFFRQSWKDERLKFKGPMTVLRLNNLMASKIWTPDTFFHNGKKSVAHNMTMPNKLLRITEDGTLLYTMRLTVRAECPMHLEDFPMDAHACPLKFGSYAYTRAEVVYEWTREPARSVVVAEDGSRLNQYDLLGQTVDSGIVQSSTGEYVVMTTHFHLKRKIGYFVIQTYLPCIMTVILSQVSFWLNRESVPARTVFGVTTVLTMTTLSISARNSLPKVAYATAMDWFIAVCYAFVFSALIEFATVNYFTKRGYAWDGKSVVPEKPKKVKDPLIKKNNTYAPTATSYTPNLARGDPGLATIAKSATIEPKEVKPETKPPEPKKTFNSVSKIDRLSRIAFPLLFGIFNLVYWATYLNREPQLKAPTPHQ
Chain of human α1β2γ2 GABAA receptors (P47870 25-512 limits assumed): as the sequence (P47870 25-512 limits assumed) above
Chain of human α1β2γ2 GABAA receptors (P18507 40-475): as the sequence (P18507 40-475) above
Chain of Muscarinic, M5 (h) (P08912 whole entry): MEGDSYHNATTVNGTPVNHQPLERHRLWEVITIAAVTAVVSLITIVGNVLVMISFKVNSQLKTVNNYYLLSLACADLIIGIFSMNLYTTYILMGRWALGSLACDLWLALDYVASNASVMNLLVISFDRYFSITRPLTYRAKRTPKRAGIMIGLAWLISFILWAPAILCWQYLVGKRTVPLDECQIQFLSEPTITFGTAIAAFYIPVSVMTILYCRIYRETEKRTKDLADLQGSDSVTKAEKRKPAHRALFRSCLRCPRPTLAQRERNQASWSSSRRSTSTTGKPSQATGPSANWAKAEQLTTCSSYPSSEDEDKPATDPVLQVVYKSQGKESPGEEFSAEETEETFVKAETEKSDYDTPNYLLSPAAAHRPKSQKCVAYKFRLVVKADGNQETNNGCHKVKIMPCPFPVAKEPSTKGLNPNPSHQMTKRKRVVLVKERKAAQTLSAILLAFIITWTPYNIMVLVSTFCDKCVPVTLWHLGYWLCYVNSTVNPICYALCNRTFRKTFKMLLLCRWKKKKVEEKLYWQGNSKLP
Chain of Serotonin, 5HT5A (h) (P47898 whole entry): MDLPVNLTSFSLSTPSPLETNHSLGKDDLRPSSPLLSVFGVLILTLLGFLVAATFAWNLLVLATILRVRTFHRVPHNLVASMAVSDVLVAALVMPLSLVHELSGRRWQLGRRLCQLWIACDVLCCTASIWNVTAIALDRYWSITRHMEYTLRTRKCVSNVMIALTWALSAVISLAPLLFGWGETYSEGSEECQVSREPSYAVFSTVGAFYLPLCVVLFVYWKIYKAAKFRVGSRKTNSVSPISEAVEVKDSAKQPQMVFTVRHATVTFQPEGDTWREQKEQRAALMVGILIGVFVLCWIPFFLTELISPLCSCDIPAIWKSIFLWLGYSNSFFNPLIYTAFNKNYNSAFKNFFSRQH
Chain of Serotonin, 5HT1D (h) (P28221 whole entry): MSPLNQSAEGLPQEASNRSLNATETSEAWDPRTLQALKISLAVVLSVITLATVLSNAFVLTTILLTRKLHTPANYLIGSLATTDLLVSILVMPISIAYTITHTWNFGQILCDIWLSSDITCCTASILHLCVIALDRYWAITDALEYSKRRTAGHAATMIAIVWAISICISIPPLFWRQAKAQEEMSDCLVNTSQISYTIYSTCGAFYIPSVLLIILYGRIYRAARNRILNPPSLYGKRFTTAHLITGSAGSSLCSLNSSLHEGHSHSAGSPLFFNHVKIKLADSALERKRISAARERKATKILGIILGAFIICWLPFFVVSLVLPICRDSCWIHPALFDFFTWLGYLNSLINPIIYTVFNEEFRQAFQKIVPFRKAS
Chain of Kinase, protein, ROCK2 (h) (O75116 whole entry): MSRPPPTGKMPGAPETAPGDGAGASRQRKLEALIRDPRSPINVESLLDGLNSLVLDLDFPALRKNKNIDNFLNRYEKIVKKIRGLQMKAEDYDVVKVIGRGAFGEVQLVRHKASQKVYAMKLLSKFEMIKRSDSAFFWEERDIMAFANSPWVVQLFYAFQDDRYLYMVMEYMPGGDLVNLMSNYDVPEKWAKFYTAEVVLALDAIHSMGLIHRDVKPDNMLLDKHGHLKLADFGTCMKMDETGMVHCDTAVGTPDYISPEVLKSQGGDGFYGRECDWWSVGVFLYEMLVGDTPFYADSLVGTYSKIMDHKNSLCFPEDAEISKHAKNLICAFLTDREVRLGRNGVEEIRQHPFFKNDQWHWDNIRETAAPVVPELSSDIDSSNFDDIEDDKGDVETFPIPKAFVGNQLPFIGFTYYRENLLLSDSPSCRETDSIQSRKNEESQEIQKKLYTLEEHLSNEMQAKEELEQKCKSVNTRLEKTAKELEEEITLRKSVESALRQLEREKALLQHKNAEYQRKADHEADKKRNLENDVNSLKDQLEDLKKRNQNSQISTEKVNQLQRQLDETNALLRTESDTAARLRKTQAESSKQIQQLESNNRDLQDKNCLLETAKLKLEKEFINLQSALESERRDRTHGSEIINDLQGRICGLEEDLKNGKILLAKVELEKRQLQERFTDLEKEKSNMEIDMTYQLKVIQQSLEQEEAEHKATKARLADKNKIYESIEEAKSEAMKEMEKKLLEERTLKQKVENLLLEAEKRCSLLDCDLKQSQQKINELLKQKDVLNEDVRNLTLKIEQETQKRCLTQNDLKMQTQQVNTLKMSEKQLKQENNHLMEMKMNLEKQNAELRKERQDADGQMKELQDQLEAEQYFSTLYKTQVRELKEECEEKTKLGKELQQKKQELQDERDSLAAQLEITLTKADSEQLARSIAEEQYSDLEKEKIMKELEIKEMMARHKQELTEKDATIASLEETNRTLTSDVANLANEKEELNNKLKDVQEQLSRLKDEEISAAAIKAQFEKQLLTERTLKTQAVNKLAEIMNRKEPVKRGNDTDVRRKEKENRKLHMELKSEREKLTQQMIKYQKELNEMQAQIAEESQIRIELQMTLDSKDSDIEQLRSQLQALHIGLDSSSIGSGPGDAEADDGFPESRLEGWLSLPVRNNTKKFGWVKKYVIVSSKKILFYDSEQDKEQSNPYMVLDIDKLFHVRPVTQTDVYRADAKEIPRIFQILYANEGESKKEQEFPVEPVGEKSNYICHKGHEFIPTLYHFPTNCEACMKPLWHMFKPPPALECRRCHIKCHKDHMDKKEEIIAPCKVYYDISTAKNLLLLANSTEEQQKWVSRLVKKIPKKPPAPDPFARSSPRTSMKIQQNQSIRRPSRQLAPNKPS
Chain of Kinase, protein, MAPK1 (ERK2, p42mapk) (h) (P28482 whole entry): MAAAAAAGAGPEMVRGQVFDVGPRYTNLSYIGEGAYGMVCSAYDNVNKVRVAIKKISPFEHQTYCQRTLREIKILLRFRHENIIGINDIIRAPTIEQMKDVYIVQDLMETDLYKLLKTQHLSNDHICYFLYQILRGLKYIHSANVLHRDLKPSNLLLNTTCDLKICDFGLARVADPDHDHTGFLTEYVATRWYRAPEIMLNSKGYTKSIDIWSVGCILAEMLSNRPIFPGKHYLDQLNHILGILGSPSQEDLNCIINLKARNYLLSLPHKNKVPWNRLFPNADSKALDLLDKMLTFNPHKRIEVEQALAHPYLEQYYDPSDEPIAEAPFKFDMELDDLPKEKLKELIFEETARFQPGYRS

Compound: NC(=O)N1c2ccccc2C[C@H](O)c2ccccc21 [eslicarbazepine]
- GABA inward current stimulation, α1β2γ2, Mean ± SEM ([1]; 50 μmol/L): 103.3 ± 2.0
- GABA inward current stimulation, α1β2γ2, Mean ± SEM ([1]; 100 μmol/L): 95.9 ± 1.0
- GABA inward current stimulation, α1β2γ2, Mean ± SEM ([1]; 250 μmol/L): 97.8 ± 1.1
- GABA inward current stimulation, α1β2γ2, Mean ± SEM ([1]; 500 μmol/L): 99.4 ± 0.8
- effect on submaximal α1β2γ2 GABA currents ([1]; 50–500 μmol/L): did not significantly change submaximal GABA currents
- GABA inward current stimulation, α3β2γ2, Mean ± SEM ([2]; 50 μmol/L): 95.6 ± 4.8
- GABA inward current stimulation, α3β2γ2, Mean ± SEM ([2]; 100 μmol/L): 97.9 ± 4.2
- GABA inward current stimulation, α3β2γ2, Mean ± SEM ([2]; 250 μmol/L): 96.4 ± 2.2
- GABA inward current stimulation, α3β2γ2, Mean ± SEM ([2]; 500 μmol/L): 91.6 ± 5.6
- effect on submaximal α3β2γ2 GABA currents ([2]; 50–500 μmol/L): did not significantly change submaximal GABA currents
- IC50 [3]: 1230 µM
- IC50 [4]: 1190 µM
- inhibition at 400 µM [5]: 10.1%
- inhibition at 400 µM (Dopamine, D2s (h)): 0%
- % inhibition [6]: 9.36%
- % inhibition (Glutamate, mGluR1): 1.82%
- % inhibition (Histamine, H3): 0.0%
- inhibition at 400 µM (Muscarinic, M1 (h)): 0%
- inhibition at 400 µM (Muscarinic, M5 (h)): 16%
- inhibition at 400 µM (Serotonin, 5HT1D (h)): 16.4%
- % inhibition (Serotonin, 5HT4): 7.38%
- inhibition at 400 µM (Serotonin, 5HT5A (h)): 11.9%
- % inhibition [7]: 6.78%
- % inhibition [8]: 0.0%
- inhibition at 400 µM [9]: 0%
- inhibition at 400 µM [10]: 0%
- % inhibition [11]: 0.0%
- inhibition at 400 µM (Kinase, protein, Fyn (h)): 3.58%
- inhibition at 400 µM [12]: 4.32%
- inhibition at 400 µM [13]: 0%
- inhibition at 400 µM [14]: 8.54%
- inhibition at 400 µM [15]: 5.7%
- Brain (whole volume) Eslicarbazepine [16, 18]: 37.5 nmol/g
- Plasma eslicarbazepine [16, 18]: 236.2 µmol/L
- Brain (whole volume) Eslicarbazepine [16, 19]: 58.7 nmol/g
- Plasma eslicarbazepine [16, 19]: 282.8 µmol/L
- Brain (whole volume) Eslicarbazepine [16, 20]: 67.7 nmol/g
- Plasma eslicarbazepine [16, 20]: 168.1 µmol/L
- Brain (whole volume) Eslicarbazepine [16, 21]: 22 nmol/g and 22.0 nmol/g
- Plasma eslicarbazepine [16, 21]: 32 µmol/L and 31.5 µmol/L
- intestinal transport M–S versus S–M and sensitivity to verapamil (P-glycoprotein): of the same magnitude and insensitive to the P-glycoprotein inhibitor verapamil
- recovery of fast inactivated channels [17]: recovered similar to control conditions
